Legend:
PPARδ = target: T1, PPARδ (Mus musculus, UniProt P35396); experiment: Partial protease (trypsin) digestion assay, PPARδ; type: binding; conditions: 2, 20 and 100 μM AJA
T1 construct: expressed in transfected cells; host or cells: HEK293 / HEK293T
T1 sequence (P35396 1-440): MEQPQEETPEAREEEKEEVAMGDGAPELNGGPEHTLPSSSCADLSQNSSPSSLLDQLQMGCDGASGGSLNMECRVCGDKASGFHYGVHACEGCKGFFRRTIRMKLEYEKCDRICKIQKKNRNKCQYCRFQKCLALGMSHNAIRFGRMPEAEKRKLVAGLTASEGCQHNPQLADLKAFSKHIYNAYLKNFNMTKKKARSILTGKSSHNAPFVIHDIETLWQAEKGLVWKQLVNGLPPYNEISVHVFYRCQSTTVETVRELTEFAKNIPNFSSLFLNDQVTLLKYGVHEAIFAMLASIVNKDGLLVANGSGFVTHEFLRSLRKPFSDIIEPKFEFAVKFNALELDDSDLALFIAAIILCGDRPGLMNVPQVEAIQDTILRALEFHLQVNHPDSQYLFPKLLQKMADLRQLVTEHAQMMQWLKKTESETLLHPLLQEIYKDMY
Description: (§1) Partial protease digestion was carried out as described by Leng et. al. (J Steroid Biochem Mol Biol 46:643-61, 1993). PPAR proteins were made by in vitro transcription/translation reactions in reticulocyte lysate according to the manufacture's instructions (Promega). AJA, GW347845, or vehicle alone was incubated with the 35S-labeled PPARs at room temperature for one hour before trypsin digestion. Reactions were stopped by boiling in SDS-containing sample buffer, and lysates were subjected to SDS-PAGE and autoradiography.
(§2) The PPAR proteins were synthesized and labeled with ^35S-methionine in reticulocyte lysate and incubated with AJA, GW347845, or vehicle alone at room temperature for one hour before trypsin digestion. The reactions were terminated by boiling in SDS-containing protein sample buffer. The proteolytic patterns of PPAR proteins were then analyzed by SDS-PAGE and autoradiography, and compared with vehicle-treated control samples.
The AJA concentrations required to protect PPARγ from trypsin digestion were further measured.

[1] = adjuvant-induced poly-arthritis, rats; cited from earlier work
COX-2 = target: T2, COX-2 (Homo sapiens, UniProt P35354); conditions: Zurier et al. 1998; cited from earlier work
T2 sequence (P35354 18-604): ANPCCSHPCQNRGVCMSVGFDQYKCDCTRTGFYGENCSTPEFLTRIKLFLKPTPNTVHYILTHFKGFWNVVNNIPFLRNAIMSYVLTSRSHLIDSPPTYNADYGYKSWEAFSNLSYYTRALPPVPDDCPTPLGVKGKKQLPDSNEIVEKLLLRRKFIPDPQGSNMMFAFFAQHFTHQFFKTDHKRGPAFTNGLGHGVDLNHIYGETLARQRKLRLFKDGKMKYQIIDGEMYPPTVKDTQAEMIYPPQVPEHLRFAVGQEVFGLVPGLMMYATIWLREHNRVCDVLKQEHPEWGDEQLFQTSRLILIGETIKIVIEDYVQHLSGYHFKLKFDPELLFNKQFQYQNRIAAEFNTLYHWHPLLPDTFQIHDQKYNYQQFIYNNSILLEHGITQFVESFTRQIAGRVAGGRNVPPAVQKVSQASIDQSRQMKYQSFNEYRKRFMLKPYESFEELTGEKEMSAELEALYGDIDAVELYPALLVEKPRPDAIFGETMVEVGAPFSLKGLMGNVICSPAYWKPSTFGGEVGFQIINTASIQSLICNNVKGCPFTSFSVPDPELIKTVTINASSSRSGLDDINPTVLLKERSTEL

mPPARγ1 = target: T3, mPPARγ1 (Mus musculus, UniProt P37238); experiment: Partial protease (trypsin) digestion assay, PPARγ; type: binding
T3 construct: made in house; host or cells: reticulocyte lysate in vitro transcription/translation (Promega) from pCMX-mPPARγ1
T3 sequence (P37238 1-475 isoform P37238-2): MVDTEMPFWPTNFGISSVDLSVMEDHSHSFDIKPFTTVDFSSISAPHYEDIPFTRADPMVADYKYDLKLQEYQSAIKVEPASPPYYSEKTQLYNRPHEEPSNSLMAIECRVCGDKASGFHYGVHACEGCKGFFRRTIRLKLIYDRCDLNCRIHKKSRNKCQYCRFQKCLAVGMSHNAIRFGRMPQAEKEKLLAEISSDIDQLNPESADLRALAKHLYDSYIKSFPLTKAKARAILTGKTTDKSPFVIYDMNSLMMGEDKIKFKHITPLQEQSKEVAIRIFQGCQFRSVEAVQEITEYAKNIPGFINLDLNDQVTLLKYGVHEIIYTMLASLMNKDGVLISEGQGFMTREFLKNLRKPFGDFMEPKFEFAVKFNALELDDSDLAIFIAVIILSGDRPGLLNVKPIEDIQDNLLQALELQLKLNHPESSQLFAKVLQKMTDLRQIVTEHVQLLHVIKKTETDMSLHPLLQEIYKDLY
Description: as §1
To determine if AJA can bind to PPARγ, in vitro translated ^35S-labeled mPPARγ1 was incubated with AJA or a carrier vehicle before trypsin digestion. To test if AJA binds to PPARs, partial proteinase digestion assays were conducted as described previously (Leng et al., J Steroid Biochem Mol Biol 46:643-61, 1993). […] Such conformational change can be detected by limited proteinase digestion based on alteration of the accessibility of proteolytic sites on the surface of the receptors.
as §2, with “The reactions were terminated by boiling in SDS-containing protein sample buffer.” left out, “samples. […]” for “samples.”

For CCCCCCC(C)(C)c1cc(O)c2c(c1)OC(C)(C)[C@@H]1CC=C(C(=O)O)C[C@@H]21 [AJA, dimethylheptyl-THC-11-oic acid], the “proteinase sensitivity of PPARδ” value (PPARδ) is listed as “did not affect the proteinase sensitivity”, the chronic joint inflammation [1] is listed as “suppress” and the “concentration range suppressing COX-2 activity” value (COX-2) is listed as 1 to 10 µM. The “trypsin-resistant PPARγ fragments (protection from trypsin digestion)” value (mPPARγ1; 20 μM AJA, 30 μg/ml trypsin, 30 or 60 min) was “Two prominent trypsin-resistant fragments of 30 and 24 kDa” and the “proteinase-resistant PPARγ fragments, concentration dependence” value (mPPARγ1; 2, 20 and 100 μM AJA) was “proteinase-resistant PPARγ fragments were observed”.
